The numbers were not newly measured in patent US20030044472A1, “METHOD AND SYNERGISTIC COMPOSITION FOR TREATING ATTENTION DEFICIT/HYPERACTIVITY DISORDER” (DexGen-Intellectual Property, Homocysteine, Inc., priority 2001, published 2003), which cites them from elsewhere.

The structures appear in SMILES notation. Structures can show the parent of a compound that is named as a salt.

The subject of series [1] is ADHD children. The conditions noted are these: double blind clinical study.
The test system of series [2] is ADHD children. The conditions noted are these: supplements at 6 mg/lb. of the child.

With `COC(=O)C(c1ccccc1)C1CCCCN1` (centres unmarked) [Ritalin, methylphenidate hydrochloride], the “test score improvements vs. placebo” value in the series with ADHD children [1] was “significant test score improvements”. As for `[Mg+2]` [magnesium], in the series on ADHD children [2], the hyperactivity result is on record as “a decrease in hyperactivity”.
